The values that follow come from patent US9073940B2, “Tricyclic pyrazol amine derivatives” (MERCK SERONO SA, priority 2009, dated 2015).

Structures are written as SMILES. Counter-ions that a name gives are not always drawn.

This assay concerns 4 PI3K isoforms (Human recombinant GST-PI3K). The experiment in a line: PI3K scintillation proximity assay, best IC50 obtained with the four isoforms (alpha, beta, delta, gamma). The class given is biochemical. As to conditions: best IC50 obtained with the four isoforms of PI3K; read-out: Best potency measured on the 4 PI3K isoforms.
Consider `Cn1cc(-c2cccc(-n3nc(C(=O)N4CCOCC4)c4c3-c3ccccc3S(=O)(=O)C4)c2)cn1` [Example 185, 1-[3-(1-Methyl-1H-pyrazol-4-yl)phenyl]-3-(morpholin-4-ylcarbonyl)-1,4-dihydrothiochromeno[4,3-c]pyrazole 5,5-dioxide], for which the IC50 is 184 nM.
For `O=C(c1nn(C2CCOCC2)c2c1CS(=O)(=O)c1ccccc1-2)N1CCOCC1` [Example 32, 3-(morpholin-4-ylcarbonyl)-1-(tetrahydro-2H-pyran-4-yl)-1,4-dihydrothiochromeno[4,3-c]pyrazole 5,5-dioxide] the value was 223 nM; for `O=C(c1nn([C@@H]2CCN(CCC3CCOCC3)C2)c2c1CS(=O)(=O)c1c(F)cccc1-2)N1CCOCC1` (single isomer, unassigned) [Example 356, 6-fluoro-3-(morpholin-4-ylcarbonyl)-1-{1-[2-(tetrahydro-2H-pyran-4-yl)ethyl]pyrrolidin-3-yl}-1,4-dihydrothiochromeno[4,3-c]pyrazole 5,5-dioxide hydrochloride salt], 1690 nM; for `O=C(c1nn(C2CCOC2)c2c1CS(=O)(=O)c1c(F)cccc1-2)N1CCOCC1` (stereo not drawn) [Example 365, 6-Fluoro-3-(morpholin-4-ylcarbonyl)-1-(tetrahydrofuran-3-yl)-1,4-dihydrothiochromeno[4,3-c]pyrazole 5,5-dioxide], 353 nM.
For `CNc1cccc2c1S(=O)(=O)Cc1c(C(=O)N3CCOCC3)nn(-c3ccccc3)c1-2` [Example 212, N-Methyl-3-(morpholin-4-ylcarbonyl)-1-phenyl-1,4-dihydrothiochromeno[4,3-c]pyrazol-6-amine 5,5-dioxide], the IC50 was 3510 nM.
With `O=C(c1nn([C@H]2CCCN(CCN3CCCC3)C2)c2c1CS(=O)(=O)c1ccccc1-2)N1CCOCC1` (stereo in doubt) [Example 450, 3-(morpholin-4-ylcarbonyl)-1-[1-(2-pyrrolidin-1-ylethyl)piperidin-3-yl]-1,4-dihydrothiochromeno[4,3-c]pyrazole 5,5-dioxide], the IC50 was 7 nM.
As for `O=C(c1nn(-c2ccc(CN3CC(F)(F)C3)cc2)c2c1CS(=O)(=O)c1ccccc1-2)N1CCOCC1` [Example 271, 1-{4-[(3,3-Difluoroazetidin-1-yl)methyl]phenyl}-3-(morpholin-4-ylcarbonyl)-1,4-dihydrothiochromeno[4,3-c]pyrazole 5,5-dioxide], the figure is 395 nM; as for `NCCN1CCC[C@H](n2nc(C(=O)N3CCOCC3)c3c2-c2ccccc2S(=O)(=O)C3)C1` (single isomer, unassigned) [Example 452, 2-{3-[3-(morpholin-4-ylcarbonyl)-5,5-dioxidothiochromeno[4,3-c]pyrazol-1(4H)-yl]piperidin-1-yl}ethanamine], 73 nM.
As for `CS(=O)(=O)Nc1cccc(-n2nc(C(=O)N3CCOCC3)c3c2-c2ccccc2S(=O)(=O)C3)c1` [Example 180, N-{3-[3-(Morpholin-4-ylcarbonyl)-5,5-dioxidothiochromeno[4,3-c]pyrazol-1 (4H)-yl]phenyl)methanesulfonamide], the figure is 1780 nM; as for `O=C(c1nn(C2CCN(CCN3CC[C@H](F)C3)C2)c2c1CS(=O)(=O)c1ccccc1-2)N1CCOCC1` (stereo partly drawn) [Example 310, 1-(1-{2-[(3S)-3-Fluoropyrrolidin-1-yl]ethyl}pyrrolidin-3-yl)-3-(morpholin-4-ylcarbonyl)-1,4-dihydrothiochromeno[4,3-c]pyrazole 5,5-dioxide], 192 nM; as for `COC(=O)CCN1CCC[C@H](n2nc(C(=O)N3CCOCC3)c3c2-c2ccccc2S(=O)(=O)C3)C1` (single isomer, unassigned) [Example 433, methyl 3-{3-[3-(morpholin-4-ylcarbonyl)-5,5-dioxidothiochromeno[4,3-c]pyrazol-1(4H)-yl]piperidin-1-yl}propanoate], 48 nM.
Consider `O=C(c1nn(-c2ccc(CNC3CCOCC3)cc2)c2c1CS(=O)(=O)c1ccccc1-2)N1CCOCC1` [Example 436, N-{4-[3-(Morpholin-4-ylcarbonyl)-5,5-dioxidothiochromeno[4,3-c]pyrazol-1 (4H)-yl]benzyl}tetrahydro-2H-pyran-4-amine], for which the IC50 came out at 107 nM.
For `CC1(C)CN(Cc2ccc(-n3nc(C(=O)N4CCOCC4)c4c3-c3ccccc3S(=O)(=O)C4)cc2)CCO1` [Example 437, 1-{4-[(2,2-Dimethylmorpholin-4-yl)methyl]phenyl}-3-(morpholin-4-ylcarbonyl)-1,4-dihydrothiochromeno[4,3-c]pyrazole 5,5-dioxide] the value was 120 nM.
Take `O=C(c1nn(-c2ccccc2)c2c1CS(=O)(=O)c1c(-c3ccccc3)cccc1-2)N1CCOCC1` [Example 323]: the IC50 was 17900 nM.
As for `CC(=O)N1CCC(Cn2nc(C(=O)N3CCOCC3)c3c2-c2ccccc2S(=O)(=O)C3)CC1` [Example 191, 1-[(1-Acetylpiperidin-4-yl)methyl]-3-(morpholin-4-ylcarbonyl)-1,4-dihydrothiochromeno[4,3-c]pyrazole 5,5-dioxide], the figure is 2820 nM; as for `CC(C)CCOC1CCN(Cc2cccc(-n3nc(C(=O)N4CCOCC4)c4c3-c3ccccc3S(=O)(=O)C4)c2)C1` (stereo not drawn) [Example 235, 1-(3-{[3-(3-Methylbutoxy)pyrrolidin-1-yl]methyl}phenyl)-3-(morpholin-4-ylcarbonyl)-1,4-dihydrothiochromeno[4,3-c]pyrazole 5,5-dioxide], 389 nM; as for `COCCCN1CCCC(n2nc(C(=O)N3CCOCC3)c3c2-c2ccccc2S(=O)(=O)C3)CC1` (stereo not drawn) [Example 258, 1-[1-(3-Methoxypropyl)azepan-4-yl]-3-(morpholin-4-ylcarbonyl)-1,4-dihydrothiochromeno[4,3-c]pyrazole 5,5-dioxide], 438 nM.
For `O=C(c1nn(-c2ccc(CN3CCC(F)(F)CC3)cc2)c2c1CS(=O)(=O)c1ccccc1-2)N1CCOCC1` [Example 268, 1-{4-[(4,4-Difluoropiperidin-1-yl)methyl]phenyl}-3-(morpholin-4-ylcarbonyl)-1,4-dihydrothiochromeno[4,3-c]pyrazole 5,5-dioxide] the value was 230 nM.
In the case of `COCCCn1nc(C(=O)N2CCOCC2)c2c1-c1ccccc1S(=O)(=O)C2` [Example 44, 1-(3-methoxypropyl)-3-(morpholin-4-ylcarbonyl)-1,4-dihydrothiochromeno[4,3-c]pyrazole 5,5-dioxide], the IC50 was found to be 907 nM.
As for `O=C(c1nn(C2CCCN(CCC3CCOCC3)C2)c2c1CS(=O)(=O)c1c(F)cccc1-2)N1CCOCC1` (stereo not drawn) [Example 280, 6-Fluoro-3-(morpholin-4-ylcarbonyl)-1-{1-[2-(tetrahydro-2H-pyran-4-yl)ethyl]piperidin-3-yl)-1,4-dihydrothiochromeno[4,3-c]pyrazole 5,5-dioxide], the IC50 came to 22 nM.
For `O=C(c1nn(-c2ccccc2)c2c1CS(=O)(=O)c1ccccc1-2)N1CCCOCC1` [Example 334, 3-(1,4-Oxazepan-4-ylcarbonyl)-1-phenyl-1,4-dihydrothiochromeno[4,3-c]pyrazole 5,5-dioxide] the value was 9070 nM; for `COc1cccc2c1S(=O)(=O)Cc1c(C(=O)N3CCOCC3)nn([C@H]3CCCN(CCN4CC(F)C4)C3)c1-2` (single isomer, unassigned) [Example 443, 1-{1-[2-(3-fluoroazetidin-1-yl)ethyl]piperidin-3-yl}-6-methoxy-3-(morpholin-4-ylcarbonyl)-1,4-dihydrothiochromeno[4,3-c]pyrazole 5,5-dioxide], 62 nM.
As for `O=C(c1nn(C2CCCN(CCN3CCOCC3)C2)c2c1CS(=O)(=O)c1ccccc1-2)N1CCOCC1` (stereo not drawn) [Example 175, 3-(Morpholin-4-ylcarbonyl)-1-[1-(2-morpholin-4-ylethyl)piperidin-3-yl]-1,4-dihydrothiochromeno[4,3-c]pyrazole 5,5-dioxide], the figure is 122 nM.
Take `O=C(CC1CCCCC1)N1CCC(n2nc(C(=O)N3CCOCC3)c3c2-c2ccccc2S(=O)(=O)C3)C1` (stereo not drawn) [Example 279, 1-[1-(Cyclohexylacetyl)pyrrolidin-3-yl]-3-(morpholin-4-ylcarbonyl)-1,4-dihydrothiochromeno[4,3-c]pyrazole 5,5-dioxide]: the IC50 is 711 nM.
For `O=C(c1nn(-c2cccc(CN3CCC(O)CC3)c2)c2c1CS(=O)(=O)c1ccccc1-2)N1CCOCC1` [Example 237, 1-{3-[3-(Morpholin-4-ylcarbonyl)-5,5-dioxidothiochromeno[4,3-c]pyrazol-1 (4H)-yl]benzyl}piperidin-4-ol] the value was 573 nM; for `O=C(c1nn(-c2cccc(CN3CCCCC3)c2)c2c1CS(=O)(=O)c1ccccc1-2)N1CCOCC1` [Example 178, 3-(Morpholin-4-ylcarbonyl)-1-[3-(piperidin-1-ylmethyl)phenyl]-1,4-dihydrothiochromeno[4,3-c]pyrazole 5,5-dioxide], 394 nM; for `O=C(c1nn(C2CCN(CCC3CCOCC3)CC2)c2c1CS(=O)(=O)c1ccccc1-2)N1CCOCC1` [Example 285, 3-(morpholin-4-ylcarbonyl)-1-{1-[2-(tetrahydro-2H-pyran-4-yl)ethyl]piperidin-4-yl}-1,4-dihydrothiochromeno[4,3-c]pyrazole 5,5-dioxide], 692 nM.
Regarding `O=C(c1nn([C@@H]2CCCN(C3CCCOC3)C2)c2c1CS(=O)(=O)c1ncccc1-2)N1CCOCC1` (single isomer, unassigned) [Example 379, 3-(morpholin-4-ylcarbonyl)-1-[1-(tetrahydro-2H-pyran-3-yl)piperidin-3-yl]-1,4-dihydropyrazolo[3′,4′:4,5]thiopyrano[2,3-b]pyridine 5,5-dioxide], the IC50 was determined as 2930 nM.
As for `O=C(CC1CCCCC1)N1CCC[C@H](n2nc(C(=O)N3CCOCC3)c3c2-c2ccccc2S(=O)(=O)C3)C1` [Example 399], the figure is 735 nM.
Turning to `CN1CCC(Cn2nc(C(=O)N3CCOCC3)c3c2-c2ccccc2S(=O)(=O)C3)CC1` [Example 208, 1-[(1-Methylpiperidin-4-yl)methyl]-3-(morpholin-4-ylcarbonyl)-1,4-dihydrothiochromeno[4,3-c]pyrazole 5,5-dioxide], the IC50 came out at 2650 nM.
